Values of other authors as cited in paper PMC12019481 (Nature Communications, 2025).

What was measured:
GAT1 = GAT1 (Homo sapiens, UniProt P30531)
Chain of GAT1 (P30531 whole entry): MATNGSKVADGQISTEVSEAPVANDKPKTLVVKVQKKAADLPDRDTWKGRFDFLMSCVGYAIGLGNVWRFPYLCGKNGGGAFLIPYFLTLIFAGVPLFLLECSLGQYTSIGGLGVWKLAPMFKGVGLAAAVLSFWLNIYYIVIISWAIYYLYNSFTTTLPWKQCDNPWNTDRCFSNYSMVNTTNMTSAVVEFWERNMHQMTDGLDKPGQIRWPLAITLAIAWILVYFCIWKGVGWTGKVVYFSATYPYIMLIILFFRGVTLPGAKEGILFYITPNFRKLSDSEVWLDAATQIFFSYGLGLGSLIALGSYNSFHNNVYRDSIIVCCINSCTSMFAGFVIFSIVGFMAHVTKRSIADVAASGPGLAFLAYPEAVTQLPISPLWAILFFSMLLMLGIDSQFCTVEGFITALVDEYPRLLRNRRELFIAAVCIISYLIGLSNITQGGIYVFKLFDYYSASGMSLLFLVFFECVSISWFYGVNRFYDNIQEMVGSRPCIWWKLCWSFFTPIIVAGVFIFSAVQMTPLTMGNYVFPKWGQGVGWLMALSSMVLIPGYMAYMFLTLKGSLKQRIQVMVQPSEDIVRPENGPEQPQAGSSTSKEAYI

Row | Compound | selectivity for GAT3 (GAT3) | selectivity for GAT1 (GAT1)
1 | 5-(2-Thienyl)Isatin | ~ 167 fold | –
2 | Cc1ccsc1C(=CCCN1CCC[C@@H](C(=O)O)C1)c1sccc1C [tiagabine] | – | 10,000–20,000 fold
